Holding throughout (type): cell-based
The test system of series [1] is Staphylococcus epidermidis CCM 7221. Briefly: MIC, microdilution method. As for the experimental part: (§1) Disposable microtiter plates are used for testing. Samples are dissolved in infusion medium from brain and heart (BHI, HiMedia Laboraties Pvt. Ltd., Czech Republic) and Mueller-Hinton broth (HiMedia Laboraties, see above) to a final concentration ranging from 200 μg/ml to 1.5625 μg/ml. Plates are inoculated with a standard amount of test bacteria—the density of the inoculum in the well corresponds to 10^5-6 CFU/ml (colony forming units/ml, i.e. the number of viable bacterial cells/ml). MIC values are read after 24/48 hours of incubation at 37° C. as the minimum inhibitory concentration of the test substance at which bacterial growth is inhibited. The minimum bactericidal concentration (MBC) is characterized as the minimum concentration of the sample required to achieve irreversible inhibition, i.e. to kill the bacteria after a defined incubation period. MBC is determined by the inoculation method. Using an applicator, 10 μl from the well of a microtiter plate with a defined concentration of the test substance is taken to inoculate the surface of blood agar (Trios, Czech Republic). MBC is determined as the lowest concentration that inhibits the visible growth of the bacterium used on agar.

The test system of series [2] is Enterococcus faecium 419/ANA. Briefly: MIC, microdilution method. The protocol:
as §1

For series [3], the system named is Staphylococcus aureus 4591. Put plainly: MIC, microdilution method. As for the experimental part:
as §1

Series [4] has as its system Enterococcus faecalis ATCC 29212 = CCM 4224. Put plainly: MIC, microdilution method. The protocol:
as §1

The test system of series [5] is Staphylococcus aureus ATCC 29213 = CCM 4223. Put plainly: MIC, microdilution method. As for the experimental part: as §1
In series [6] the test system is Escherichia coli ATCC 25922 = CCM 3954. Put plainly: MIC, microdilution method. The protocol:
as §1

Series [7] concerns Pseudomonas aeruginosa ATCC 27853 = CCM 3955. Briefly: MIC, microdilution method. As for the experimental part:
as §1

The subject of series [8] is Pseudomonas aeruginosa R. Put plainly: MIC, microdilution method. The protocol:
as §1

Series [9] relates to Enterobacter kobei 3683. Briefly: MIC, microdilution method. As for the experimental part:
as §1

For series [10], the system named is Escherichia coli CE5556. Briefly: MIC, microdilution method. As for the experimental part: as §1
Series [11] has as its system Candida albicans ATCC 90028 = CCM 8161. Put plainly: MIC, microdilution method.
The test system of series [12] is erythrocytes. Briefly: Haemolytic activity of soluble samples. As for the experimental part: Blood from three donors is mixed and centrifuged (10 min, 1000 g, 4° C.). The erythrocytes obtained are washed three times with NaCl solution (150 mmol·l^−1) and then used for experiments. Sample stock solutions are prepared in DMSO so that the final concentration of DMSO in NaCl is 0.5% (v/v). NaCl solution with the appropriate volume of DMSO serves as the negative control. 1% Triton-X100 is the positive control. The erythrocytes obtained are diluted to 2% with NaCl solution and pipetted into Eppendorf tubes (250 μl) with constant stirring. Samples and positive and negative controls are added to the erythrocytes prepared in this way and incubated (3 hours, 37° C.). The tubes are stirred during the incubation. After centrifugation (5 min, 1000 g), haemolytic activity is monitored by haemoglobin determination. The HC50 value is calculated from the measured absorbance values. The test is performed in triplets in three independent replicates. Iron Fe^2+ in haemoglobin is oxidized with potassium ferricyanide to iron Fe^3+ in methaemoglobin, which produces stable cyanomethaemoglobin with potassium cyanide, the concentration of which is determined spectrophotometrically. After the incubation of the erythrocytes with the substances, the cells are centrifuged (5 min, 1000 g), then Drabkin's solution (200 μl) is added to the supernatant (40 μl) and after incubation (10 min), the absorbance at 540 nm is measured.

The mark [13] stands for this setting: Staphylococcus epidermidis, CCM7221.

This is an account of results in US12540148B2, “Lipophosphonoxins, their preparation and use” (USTAV ORGANICKE CHEMIE A BIOCHEMIE AV CR, V. V. I., priority 2019, dated 2026).

Converted amounts (≈) assume the structure as drawn. Counter-ions that a name gives are not always drawn. Like-named read-outs stand apart in the source and are kept apart here.

Consider “Dihexyl tetradecan-1,14-diyl bis((2-(bis(3-aminopropyl)amino)ethyl)-phosphonate) tetrahydrochloride [Example 54]”, for which the MIC in [1] was found to be 0.5 µg/mL; in series [2], 64 µg/mL; in series [3], 1 µg/mL; in [4], 8 µg/mL; in series [5], 1 µg/mL; in series [6] it was 4 µg/mL. Also, the minimum inhibitory concentration (MIC) in series [7] was 8 µg/mL; in series [8] (24/48 hours at 37° C.), 8 µg/mL; in series [9], more than 128 µg/mL; in series [10], 16 µg/mL; in [11] it was 16 µg/mL. In addition, in series [12], the “HC50 ± SD” value is more than 100.
`CCCC/C=C\CCOP(=O)(CCN(CCCN)CCCN)OCCCCCCOP(=O)(CCN(CCCN)CCCN)OCC/C=C\CCCC` (stereo not shown) [Example 57, Hexane-1,6-diyl di((Z)-oct-3-en-1-yl) bis((2-(bis(3-aminopropyl)amino)-ethyl)phosphonate) hexahydrochloride]: the minimum inhibitory concentration (MIC) in series [1] (setting [13]) was 0.5 µg/mL; in series [2] (Enterococcus faecium, 419/ANA), 64 µg/mL; in series [3] (Staphylococcus aureus, 4591), 1 µg/mL; in series [4] (Enterococcus faecalis), 16 µg/mL; in series [5] (Staphylococcus aureus), 1 µg/mL; in [6] (Escherichia coli), 2 µg/mL. Also, the minimal inhibitory concentration (MIC) in [7] (Pseudomonas aeruginosa) worked out at 16 µg/mL; in [8] (Pseudomonas aeruginosa), 16 µg/mL; in series [10] (Escherichia coli, CE5556) it was 2 µg/mL; in [11] (Candida albicans) it was 64 µg/mL. The “HC50 ± SD” value in [12] came to 34.8.
For the compound `CCCCCCOP(=O)(CCN(CCN)CCN)OCCCCCCCCOP(=O)(CCN(CCN)CCN)OCCCCCC` (stereo not shown) [Example 55, Dihexyl octane-1,8-diyl bis((2-(bis(2-aminoethyl)amino)ethyl)phosphonate) hexahydrochloride], the MIC in [1] (setting [13]) was 2 µg/mL; in [2] (Enterococcus faecium, 419/ANA), more than 128 µg/mL; in series [3] (Staphylococcus aureus, 4591), 4 µg/mL; in series [4] (Enterococcus faecalis) it was 128 µg/mL; in series [5] (Staphylococcus aureus), 2 µg/mL; in [6] (Escherichia coli), more than 128 µg/mL. Moreover, the minimal inhibitory concentration (MIC) in [7] (Pseudomonas aeruginosa) is 64 µg/mL; in [8] (Pseudomonas aeruginosa), 64 µg/mL; in [9] (Enterobacter kobei, 3683), more than 128 µg/mL; in [10] (Escherichia coli, CE5556), more than 128 µg/mL; in series [11] (Candida albicans), 32 µg/mL. Also, in series [12], the “HC50 ± SD” value is on record as more than 100.
“Dibutyl dodecane-1,12-diyl bis((2-(bis(3-aminopropyl)amino)ethyl)-phosphonate) hexahydrochloride [Example 47]”: the minimal inhibitory concentration (MIC) in series [1] was 0.5 µg/mL; in series [2], 16 µg/mL; in series [3], 1 µg/mL; in [4], 2 µg/mL; in series [5] it was 1 µg/mL; in series [6] it was 16 µg/mL. The MIC in [7] is 4 µg/mL; in [8] (24/48 hours at 37° C.), 4 µg/mL; in series [9] it was 128 µg/mL; in series [10], 32 µg/mL; in [11] it was 16 µg/mL. The “HC50 ± SD” value in [12] is reported as more than 100.
Take `CC(C)COP(=O)(CCN(CCCN)CCCN)OCCCCCCCCCCOP(=O)(CCN(CCCN)CCCN)OCC(C)C` (stereo not shown) [Example 40, Diisobutyl decane-1,10-diyl bis((2-(bis(3-aminopropyl)amino)ethyl)-phosphonate) hexahydrochloride]: the minimal inhibitory concentration (MIC) in [1] (setting [13]) is 4 µg/mL; in series [2] (Enterococcus faecium, 419/ANA), more than 128 µg/mL; in [3] (Staphylococcus aureus, 4591), 8 µg/mL; in series [4] (Enterococcus faecalis), 128 µg/mL; in [5] (Staphylococcus aureus), 16 µg/mL; in [6] (Escherichia coli), more than 128 µg/mL. Moreover, the minimal inhibitory concentration (MIC) in [7] (Pseudomonas aeruginosa) was more than 128 µg/mL; in [8] (Pseudomonas aeruginosa) it was more than 128 µg/mL; in series [9] (Enterobacter kobei, 3683) it was more than 128 µg/mL; in series [10] (Escherichia coli, CE5556), more than 128 µg/mL; in series [11] (Candida albicans) it was 128 µg/mL. Further, the “HC50 ± SD” value in series [12] is more than 100.
For the compound “Dodecan-1,10-diyl dioctyl bis((2-(bis(3-aminopropyl)amino)ethyl)-phosphonate) tetrahydrochloride [Example 49]”, the MIC in series [1] turned out to be 0.5 µg/mL; in series [2], 32 µg/mL; in series [3], 4 µg/mL; in series [4], 4 µg/mL; in series [7] it was 8 µg/mL; in series [8] (24/48 hours at 37° C.) it was 8 µg/mL. Also, the MIC worked out at 128 µg/mL in series [9], 16 µg/mL in series [10] and 8 µg/mL in [11]. Moreover, the “HC50 ± SD” value in series [12] is listed as more than 100.
As for `CCCC/C=C\CCOP(=O)(CCN(CCCN)CCCN)OCCCCCOP(=O)(CCN(CCCN)CCCN)OCC/C=C\CCCC` (stereo not shown) [Example 58, Di((Z)-oct-3-en-1-yl) pentane-1,5-diyl bis((2-(bis(3-aminopropyl)amino)ethyl)-phosphonate) hexahydrochloride], the minimum inhibitory concentration (MIC) in series [1] (setting [13]) came to 2 µg/mL; in series [2] (Enterococcus faecium, 419/ANA), 4 µg/mL; in series [3] (Staphylococcus aureus, 4591), 128 µg/mL; in series [4] (Enterococcus faecalis) it was 2 µg/mL; in series [5] (Staphylococcus aureus) it was 0.5 µg/mL; in [6] (Escherichia coli), 8 µg/mL. Besides, the minimal inhibitory concentration (MIC) is 32 µg/mL in series [7] (Pseudomonas aeruginosa); 32 µg/mL in [8] (Pseudomonas aeruginosa); 4 µg/mL in series [10] (Escherichia coli, CE5556); 64 µg/mL in series [11] (Candida albicans). Also, the “HC50 ± SD” value in [12] was found to be 70.
In the case of `CC(C)COP(=O)(CCN(CCCN)CCCN)OCCCCCCCCCCCCOP(=O)(CCN(CCCN)CCCN)OCC(C)C` (stereo not shown) [Example 46, Dodecane-1,12-diyl diisobutyl bis((2-(bis(3-aminopropyl)amino)ethyl)-phosphonate) hexahydrochloride], the minimum inhibitory concentration (MIC) in series [1] (setting [13]) was 1 µg/mL; in [2] (Enterococcus faecium, 419/ANA), more than 128 µg/mL; in series [3] (Staphylococcus aureus, 4591), 4 µg/mL; in series [4] (Enterococcus faecalis), 32 µg/mL; in series [5] (Staphylococcus aureus), 4 µg/mL; in series [6] (Escherichia coli), 128 µg/mL. Further, the MIC is 32 µg/mL in [7] (Pseudomonas aeruginosa); 16 µg/mL in series [8] (Pseudomonas aeruginosa); more than 128 µg/mL in series [9] (Enterobacter kobei, 3683); more than 128 µg/mL in series [10] (Escherichia coli, CE5556); 64 µg/mL in series [11] (Candida albicans). For the same compound, the “HC50 ± SD” value in series [12] was more than 100.
For `NCCCN(CCCN)CCP(=O)(OCCCCCCCCCCCCOP(=O)(CCN(CCCN)CCCN)OCCc1ccccc1)OCCc1ccccc1` (stereo not shown) [Example 50], the minimal inhibitory concentration (MIC) in series [1] (setting [13]) was 0.5 µg/mL (≈ 0.586 µM); in series [2] (Enterococcus faecium, 419/ANA), 2 µg/mL (≈ 2.34 µM); in series [3] (Staphylococcus aureus, 4591), 1 µg/mL (≈ 1.17 µM); in series [4] (Enterococcus faecalis), 4 µg/mL (≈ 4.69 µM); in series [5] (Staphylococcus aureus) it was 2 µg/mL (≈ 2.34 µM); in series [6] (Escherichia coli), 16 µg/mL (≈ 18.8 µM). Besides, the MIC came to 4 µg/mL (≈ 4.69 µM) in series [7] (Pseudomonas aeruginosa); 2 µg/mL (≈ 2.34 µM) in series [8] (Pseudomonas aeruginosa); 8 µg/mL (≈ 9.38 µM) in [9] (Enterobacter kobei, 3683); 2 µg/mL (≈ 2.34 µM) in series [10] (Escherichia coli, CE5556); 4 µg/mL (≈ 4.69 µM) in series [11] (Candida albicans). The “HC50 ± SD” value in series [12] was more than 100.
For the compound `CCCCOP(=O)(CCN(CCCN)CCCN)OCCCCCCCCCCCCCCOP(=O)(CCN(CCCN)CCCN)OCCCC.Cl.Cl.Cl.Cl.Cl.Cl` (stereo not shown) [Example 52, Dibutyl tetradecane-1,14-diyl bis((2-(bis(3-aminopropyl)amino)ethyl)phosphonate) hexahydrochloride], the minimal inhibitory concentration (MIC) came to 0.5 µg/mL in [1] (setting [13]); 2 µg/mL in series [2] (Enterococcus faecium, 419/ANA); 1 µg/mL in [3] (Staphylococcus aureus, 4591); 1 µg/mL in [4] (Enterococcus faecalis); 1 µg/mL in series [5] (Staphylococcus aureus); 2 µg/mL in series [6] (Escherichia coli, 24/48 hours at 37° C.). Moreover, the minimal inhibitory concentration (MIC) amounted to 4 µg/mL in [7] (Pseudomonas aeruginosa); 2 µg/mL in [8] (Pseudomonas aeruginosa); 8 µg/mL in [9] (Enterobacter kobei, 3683); 2 µg/mL in [10] (Escherichia coli, CE5556); 4 µg/mL in series [11] (Candida albicans).
